Calls of active or inactive are those of the source. The rule behind the calls is not given here.
Tested on: CCRIS mutagenicity, Ames/micronucleus/aberration tests
Assay: CCRIS mutagenicity studies

Structure (SMILES): Nc1c2ccccc2nc2ccccc12
- mutagenic call (Test System: AMES SALMONELLA TYPHIMURIUM, Strain/Indicator: TA97A, Metabolic Activation: NONE, Method: STANDARD PLATE): active; positive
- mutagenic call (Test System: AMES SALMONELLA TYPHIMURIUM, Strain/Indicator: TA98, Metabolic Activation: HAMSTER, LIVER, S-9, AROCLOR 1254 (10%), Method: PREINCUBATION): inactive; negative
- mutagenic call (Test System: AMES SALMONELLA TYPHIMURIUM, Strain/Indicator: TA98, Metabolic Activation: NONE, Method: FLUCTUATION (MICROTITER)): inactive; negative
- mutagenic call (Test System: AMES SALMONELLA TYPHIMURIUM, Strain/Indicator: TA98, Metabolic Activation: NONE, Method: PREINCUBATION): inactive; negative
- mutagenic call (Test System: AMES SALMONELLA TYPHIMURIUM, Strain/Indicator: TA98, Metabolic Activation: NONE, Method: SPIRAL ASSAY): inactive; negative
- mutagenic call (Test System: AMES SALMONELLA TYPHIMURIUM, Strain/Indicator: TA98, Metabolic Activation: NONE, Method: STANDARD PLATE): inactive; negative
- mutagenic call (Test System: AMES SALMONELLA TYPHIMURIUM, Strain/Indicator: TA98, Metabolic Activation: RAT, LIVER, S-9, AROCLOR 1254 (10%), Method: PREINCUBATION): inactive; negative
- mutagenic call (Test System: AMES SALMONELLA TYPHIMURIUM, Strain/Indicator: TA98, Metabolic Activation: RAT, LIVER, S-9, AROCLOR 1254, Method: SPIRAL ASSAY): inactive; negative
- mutagenic call (Test System: AMES SALMONELLA TYPHIMURIUM, Strain/Indicator: TA98, Metabolic Activation: RAT, LIVER, S-9, AROCLOR 1254, Method: STANDARD PLATE): inactive; negative
- mutagenic call (Test System: AMES SALMONELLA TYPHIMURIUM, Strain/Indicator: TA100, Metabolic Activation: HAMSTER, LIVER, S-9, AROCLOR 1254 (10%), Method: PREINCUBATION): inactive; negative
- mutagenic call (Test System: AMES SALMONELLA TYPHIMURIUM, Strain/Indicator: TA100, Metabolic Activation: NONE, Method: PREINCUBATION): inactive; negative
- mutagenic call (Test System: AMES SALMONELLA TYPHIMURIUM, Strain/Indicator: TA100, Metabolic Activation: NONE, Method: SPIRAL ASSAY): inactive; negative
- mutagenic call (Test System: AMES SALMONELLA TYPHIMURIUM, Strain/Indicator: TA100, Metabolic Activation: NONE, Method: STANDARD PLATE): inactive; negative
- mutagenic call (Test System: AMES SALMONELLA TYPHIMURIUM, Strain/Indicator: TA100, Metabolic Activation: RAT, LIVER, S-9, AROCLOR 1254 (10%), Method: PREINCUBATION): inactive; negative
- mutagenic call (Test System: AMES SALMONELLA TYPHIMURIUM, Strain/Indicator: TA100, Metabolic Activation: RAT, LIVER, S-9, AROCLOR 1254, Method: SPIRAL ASSAY): inactive; negative
- mutagenic call (Test System: AMES SALMONELLA TYPHIMURIUM, Strain/Indicator: TA100, Metabolic Activation: RAT, LIVER, S-9, AROCLOR 1254, Method: STANDARD PLATE): inactive; negative
- mutagenic call (Test System: AMES SALMONELLA TYPHIMURIUM, Strain/Indicator: TA1535, Metabolic Activation: HAMSTER, LIVER, S-9, AROCLOR 1254 (10%), Method: PREINCUBATION): inactive; negative
- mutagenic call (Test System: AMES SALMONELLA TYPHIMURIUM, Strain/Indicator: TA1535, Metabolic Activation: NONE, Method: PREINCUBATION): inactive; negative
- mutagenic call (Test System: AMES SALMONELLA TYPHIMURIUM, Strain/Indicator: TA1535, Metabolic Activation: NONE, Method: SPIRAL ASSAY): inactive; negative
- mutagenic call (Test System: AMES SALMONELLA TYPHIMURIUM, Strain/Indicator: TA1535, Metabolic Activation: NONE, Method: STANDARD PLATE): inactive; negative
- mutagenic call (Test System: AMES SALMONELLA TYPHIMURIUM, Strain/Indicator: TA1535, Metabolic Activation: RAT, LIVER, S-9, AROCLOR 1254 (10%), Method: PREINCUBATION): inactive; negative
- mutagenic call (Test System: AMES SALMONELLA TYPHIMURIUM, Strain/Indicator: TA1535, Metabolic Activation: RAT, LIVER, S-9, AROCLOR 1254, Method: SPIRAL ASSAY): inactive; negative
- mutagenic call (Test System: AMES SALMONELLA TYPHIMURIUM, Strain/Indicator: TA1535, Metabolic Activation: RAT, LIVER, S-9, AROCLOR 1254, Method: STANDARD PLATE): inactive; negative
- mutagenic call (Test System: AMES SALMONELLA TYPHIMURIUM, Strain/Indicator: TA1535, Metabolic Activation: RAT, LIVER, S-9, TETRACHLOROBIPHENYL, Method: PREINCUBATION): inactive; negative
- mutagenic call (Test System: AMES SALMONELLA TYPHIMURIUM, Strain/Indicator: TA1537, Metabolic Activation: HAMSTER, LIVER, S-9, AROCLOR 1254 (10%), Method: PREINCUBATION): active; positive
- mutagenic call (Test System: AMES SALMONELLA TYPHIMURIUM, Strain/Indicator: TA1537, Metabolic Activation: NONE): active; positive
- mutagenic call (Test System: AMES SALMONELLA TYPHIMURIUM, Strain/Indicator: TA1537, Metabolic Activation: NONE, Method: PREINCUBATION): active; positive
- mutagenic call (Test System: AMES SALMONELLA TYPHIMURIUM, Strain/Indicator: TA1537, Metabolic Activation: NONE, Method: SPIRAL ASSAY): active; positive
- mutagenic call (Test System: AMES SALMONELLA TYPHIMURIUM, Strain/Indicator: TA1537, Metabolic Activation: NONE, Method: STANDARD PLATE): active; positive
- mutagenic call (Test System: AMES SALMONELLA TYPHIMURIUM, Strain/Indicator: TA1537, Metabolic Activation: RAT LIVER S-9, AROCLOR 1254, Method: FLUCTUATION (MICROTITER)): active; positive
- mutagenic call (Test System: AMES SALMONELLA TYPHIMURIUM, Strain/Indicator: TA1537, Metabolic Activation: RAT, LIVER, S-9, AROCLOR 1254 (10%), Method: PREINCUBATION): active; positive
- mutagenic call (Test System: AMES SALMONELLA TYPHIMURIUM, Strain/Indicator: TA1537, Metabolic Activation: RAT, LIVER, S-9, AROCLOR 1254, Method: SPIRAL ASSAY): active; positive
- mutagenic call (Test System: AMES SALMONELLA TYPHIMURIUM, Strain/Indicator: TA1537, Metabolic Activation: RAT, LIVER, S-9, AROCLOR 1254, Method: STANDARD PLATE): active; positive
- mutagenic call (Test System: AMES SALMONELLA TYPHIMURIUM, Strain/Indicator: TA1537, Metabolic Activation: RAT, LIVER, S-9, TETRACHLOROBIPHENYL, Method: PREINCUBATION): active; positive
- mutagenic call (Test System: AMES SALMONELLA TYPHIMURIUM, Strain/Indicator: TA1538, Metabolic Activation: NONE, Method: PREINCUBATION): inactive; negative
- mutagenic call (Test System: AMES SALMONELLA TYPHIMURIUM, Strain/Indicator: TA1538, Metabolic Activation: RAT, LIVER, S-9, TETRACHLOROBIPHENYL, Method: PREINCUBATION): inactive; negative
- mutagenic call (Test System: AMES SALMONELLA TYPHIMURIUM, Strain/Indicator: TA1977, Metabolic Activation: NONE, Method: PREINCUBATION): active; positive
- mutagenic call (Test System: AMES SALMONELLA TYPHIMURIUM, Strain/Indicator: TA1977, Metabolic Activation: RAT, LIVER, S-9, TETRACHLOROBIPHENYL, Method: PREINCUBATION): active; positive
- mutagenic call (Test System: AMES SALMONELLA TYPHIMURIUM, Strain/Indicator: TA7001, Metabolic Activation: NONE, Method: FLUCTUATION (MICROTITER)): inactive; negative
- mutagenic call (Test System: AMES SALMONELLA TYPHIMURIUM, Strain/Indicator: TA7002, Metabolic Activation: NONE, Method: FLUCTUATION (MICROTITER)): inactive; negative
- mutagenic call (Test System: AMES SALMONELLA TYPHIMURIUM, Strain/Indicator: TA7003, Metabolic Activation: NONE, Method: FLUCTUATION (MICROTITER)): inactive; negative
- mutagenic call (Test System: AMES SALMONELLA TYPHIMURIUM, Strain/Indicator: TA7004, Metabolic Activation: NONE, Method: FLUCTUATION (MICROTITER)): inactive; negative
- mutagenic call (Test System: AMES SALMONELLA TYPHIMURIUM, Strain/Indicator: TA7005, Metabolic Activation: NONE, Method: FLUCTUATION (MICROTITER)): inactive; negative
- mutagenic call (Test System: AMES SALMONELLA TYPHIMURIUM, Strain/Indicator: TA7006, Metabolic Activation: NONE, Method: FLUCTUATION (MICROTITER)): inactive; negative
- mutagenic call (Test System: CHINESE HAMSTER OVARY, Strain/Indicator: CHO-K1-BH4 (HGPRT), Metabolic Activation: NONE, Method: SUSPENSION/PLATE): inactive; negative
- mutagenic call (Test System: CHINESE HAMSTER OVARY, Strain/Indicator: CHO-K1-BH4 (HGPRT), Metabolic Activation: RAT, LIVER, S-9, AROCLOR, Method: SUSPENSION/PLATE): inactive; negative
- mutagenic call (Test System: CHINESE HAMSTER V-79, Strain/Indicator: V-79/6-THIOGUANINE, Metabolic Activation: NONE, Method: FLASK ASSAY): inactive; negative
- mutagenic call (Test System: E. COLI, Strain/Indicator: WP2 UVRA, Metabolic Activation: HAMSTER, LIVER, S-9, AROCLOR 1254, Method: STANDARD PLATE): inactive; negative
- mutagenic call (Test System: E. COLI, Strain/Indicator: WP2 UVRA, Metabolic Activation: HAMSTER, LIVER, S-9, Method: STANDARD PLATE): inactive; negative
- mutagenic call (Test System: E. COLI, Strain/Indicator: WP2 UVRA, Metabolic Activation: MOUSE, LIVER, S-9, AROCLOR 1254, Method: STANDARD PLATE): inactive; negative
- mutagenic call (Test System: E. COLI, Strain/Indicator: WP2 UVRA, Metabolic Activation: MOUSE, LIVER, S-9, Method: STANDARD PLATE): inactive; negative
- mutagenic call (Test System: E. COLI, Strain/Indicator: WP2 UVRA, Metabolic Activation: NONE, Method: STANDARD PLATE): inactive; negative
- mutagenic call (Test System: E. COLI, Strain/Indicator: WP2 UVRA, Metabolic Activation: RAT, LIVER, S-9, AROCLOR 1254, Method: STANDARD PLATE): inactive; negative
- mutagenic call (Test System: E. COLI, Strain/Indicator: WP2 UVRA, Metabolic Activation: RAT, LIVER, S-9, Method: STANDARD PLATE): inactive; negative
- mutagenic call (Test System: E. coli, Strain/Indicator: KKi (wild-type), KK5 (recA56) and KK6 (uvrA6), Metabolic Activation: None, Method: Viable cells scored on LB-plates after 18 hr incubation): active; positive in all 3 strains (most common mutations minus frameshifts in repetitive
- mutagenic call (Test System: UDS RAT HEPATOCYTES, Strain/Indicator: THY INCORP, Metabolic Activation: NONE, Method: AUTORADIOGRAPHY (SERUM-FREE MEDIA)): inactive; negative
